The assay concerns H. influenza Hi4 efflux pump KO. The assay is described as follows: Antibacterial activity assay (MIC), H. influenza Hi4. The assay is classed as cell-based.

Converted amounts (≈) assume the structure as drawn. Bounds are passed on as bounds.

Consider “8-O-4-Bromo-5-Chloro-1H-pyrrole-2′-carbonylbranimycin [Compound 35]”, for which the “MIC Hi4 efflux pump KO” value is 16 mg/L.
For “8-O-5-Bromo-4-Chloro-1H-pyrrole-2′-carbonylbranimycin [Compound 33]”, the “MIC Hi4 efflux pump KO” value was determined as 16 mg/L.
`COC[C@H]1[C@@H](O)[C@@H]2O[C@@]34/C(C)=C/[C@@H](C)[C@@H]([C@H](O)COC)OC(=O)[C@H](COC)[C@H]3C=C[C@@H]2[C@H]4[C@@H]1O` [Branimycin, reference compound] registered an MIC of 4 mg/L (≈ 8.29 µM).
`COC[C@@H](O)[C@H]1OC(=O)[C@H](COC)[C@H]2C=C[C@H]3[C@H]4O[C@]2(/C(C)=C/[C@H]1C)[C@@H]3[C@H](O)[C@@H](C)[C@H]4O` [Compound 1, Baleomycin] came in with an MIC of 2 mg/L (≈ 4.42 µM).
The same measure, in the same setting: the figure for `COC[C@@H]1[C@@H](O)[C@@H]2[C@H]3C=C[C@@H]4[C@@H](COC)C(=O)O[C@H]([C@H](O)COC)[C@H](C)/C=C(\C)[C@@]24O[C@H]3[C@@H]1OC(=O)c1ccc[nH]1` [Compound 2, 8-O-1H-pyrrole-2′-carbonylbranimycin] is 4 mg/L (≈ 6.95 µM); for `COC[C@@H](O)[C@H]1OC(=O)[C@H](COC)[C@H]2C=C[C@H]3[C@H]4O[C@]2(/C(C)=C/[C@H]1C)[C@@H]3[C@H](O)[C@@H](C)[C@H]4OC(=O)c1ccc[nH]1` [Compound 3, 8-O-1H-pyrrole-2′-carbonylbaleomycin] it is 1 mg/L (≈ 1.83 µM); for `COCC[C@H]1OC(=O)[C@H](COC)[C@H]2C=C[C@H]3[C@H]4O[C@]2(/C(C)=C/[C@H]1C)[C@@H]3[C@H](O)[C@@H](COC)[C@H]4OC(=O)c1ccc[nH]1` [Compound 4, 17-Deoxy-8-O-1H-pyrrole-2′-carbonylbranimycin] it is 16 mg/L (≈ 28.6 µM).
`COC[C@@H]1[C@@H](O)[C@@H]2[C@H]3C=C[C@@H]4[C@@H](COC)C(=O)O[C@H]([C@H](O)COC)[C@H](C)/C=C(\C)[C@@]24O[C@H]3[C@@H]1OC(=O)c1ccoc1` [Compound 5, 8-O-Furane-3′-carbonylbranimycin] gave an MIC of 8 mg/L (≈ 13.9 µM).
Same read-out and setting: the same measure for `COC[C@@H]1[C@@H](O)[C@@H]2[C@H]3C=C[C@@H]4[C@@H](COC)C(=O)O[C@H]([C@H](O)COC)[C@H](C)/C=C(\C)[C@@]24O[C@H]3[C@@H]1OC(=O)c1ccc(C)[nH]1` [Compound 6, 8-O-5-Methyl-1H-pyrrole-2′-carbonylbranimycin]: 32 mg/L (≈ 54.3 µM).
Consider `COC[C@@H](O)[C@H]1OC(=O)[C@H](COC)[C@H]2C=C[C@H]3[C@H]4O[C@]2(/C(C)=C/[C@H]1C)[C@@H]3[C@H](O)[C@@H](C)[C@H]4OC(=O)c1ccoc1` [Compound 7, 8-O-Furane-3′-carbonylbaleomycin], for which the MIC stood at 0.5 mg/L (≈ 0.915 µM).
Still for that read-out and setting: the same measure for `COC[C@@H]1[C@@H](O)[C@@H]2[C@H]3C=C[C@@H]4[C@@H](COC)C(=O)O[C@H]([C@H](O)COC)[C@H](C)/C=C(\C)[C@@]24O[C@H]3[C@@H]1OC(=O)c1cocn1` [Compound 8, 8-O-Oxazole-4′-carbonylbranimycin]: greater than 64 mg/L.
`COC[C@@H]1[C@@H](O)[C@@H]2[C@H]3C=C[C@@H]4[C@@H](COC)C(=O)O[C@H]([C@H](O)COC)[C@H](C)/C=C(\C)[C@@]24O[C@H]3[C@@H]1OC(=O)c1ccsc1` [Compound 9, 8-O-Thiophene-3′-carbonylbranimycin] gave an MIC of 16 mg/L (≈ 27 µM).
As for `COC[C@@H]1[C@@H](O)[C@@H]2[C@H]3C=C[C@@H]4[C@@H](COC)C(=O)O[C@H]([C@H](O)COC)[C@H](C)/C=C(\C)[C@@]24O[C@H]3[C@@H]1OC(=O)c1cc[nH]n1` [Compound 10, 8-O-1H-Pyrazole-3′-carbonylbranimycin], the MIC worked out at 32 mg/L (≈ 55.5 µM).
Turning to `COC[C@@H]1[C@@H](O)[C@@H]2[C@H]3C=C[C@@H]4[C@@H](COC)C(=O)O[C@H]([C@H](O)COC)[C@H](C)/C=C(\C)[C@@]24O[C@H]3[C@@H]1OC(=O)c1ccoc1C` [Compound 11, 8-O-2-Methylfurane-3′-carbonylbranimycin], the MIC amounted to 32 mg/L (≈ 54.2 µM).

The values are drawn from patent US20160297830A1, “NOVEL COMPOUNDS USEFUL FOR THE TREATMENT OF BACTERIAL INFECTIOUS DISEASES” (GALAPAGOS NV, priority 2013, published 2016).
